Assay results as given in patent publication US8263385B2, “S-triazine-herbicide-degrading bacteria, product for the bioremediation and method of bioremediation” (priority 2007, dated 2012).

tested on: Pseudomonas sp. strain MHP41; assay: Antibiotic sensitivity of strain MHP41; format: cell-based

| SMILES | sensitivity or resistance of the strain to the antibiotic |
| --- | --- |
| CC1(C)S[C@@H]2[C@H](NC(=O)[C@H](N)c3ccccc3)C(=O)N2[C@H]1C(=O)O [ampicillin] | natural resistance |
| CC1(C)S[C@@H]2[C@H](NC(=O)C(C(=O)O)c3ccccc3)C(=O)N2[C@H]1C(=O)O (stereo partly drawn) [carbamicillin] | sensitive |
| [H]/N=C(/N)N[C@H]1[C@H](O)[C@@H](O)[C@H](O[C@@H]2O[C@@H](C)[C@](O)(C=O)[C@H]2O[C@@H]2O[C@@H](CO)[C@H](O)[C@@H](O)[C@@H]2NC)[C@@H](N/C(N)=N\[H])[C@@H]1O [streptomycin] | sensitive |
